Experiments:
5-lipoxygenase [1] = molecular target: T1, 5-lipoxygenase (Cavia porcellus, UniProt A0A286X958); assay: Inhibition of 5-HETE and LTB4 synthesis in A-23187-stimulated guinea pig polymorphonuclear leukocytes; assay type: cell-based; settings: also printed as 7×10^-7 M, read-out: IC50 for inhibition of the formation of 5-HETE and leukotriene B4 (LTB4)
T1 construct: in A-23187-stimulated guinea pig polymorphonuclear leukocytes; endogenous in cells; host or cells: guinea pig polymorphonuclear leukocytes
T1 sequence (A0A286X958 1-674): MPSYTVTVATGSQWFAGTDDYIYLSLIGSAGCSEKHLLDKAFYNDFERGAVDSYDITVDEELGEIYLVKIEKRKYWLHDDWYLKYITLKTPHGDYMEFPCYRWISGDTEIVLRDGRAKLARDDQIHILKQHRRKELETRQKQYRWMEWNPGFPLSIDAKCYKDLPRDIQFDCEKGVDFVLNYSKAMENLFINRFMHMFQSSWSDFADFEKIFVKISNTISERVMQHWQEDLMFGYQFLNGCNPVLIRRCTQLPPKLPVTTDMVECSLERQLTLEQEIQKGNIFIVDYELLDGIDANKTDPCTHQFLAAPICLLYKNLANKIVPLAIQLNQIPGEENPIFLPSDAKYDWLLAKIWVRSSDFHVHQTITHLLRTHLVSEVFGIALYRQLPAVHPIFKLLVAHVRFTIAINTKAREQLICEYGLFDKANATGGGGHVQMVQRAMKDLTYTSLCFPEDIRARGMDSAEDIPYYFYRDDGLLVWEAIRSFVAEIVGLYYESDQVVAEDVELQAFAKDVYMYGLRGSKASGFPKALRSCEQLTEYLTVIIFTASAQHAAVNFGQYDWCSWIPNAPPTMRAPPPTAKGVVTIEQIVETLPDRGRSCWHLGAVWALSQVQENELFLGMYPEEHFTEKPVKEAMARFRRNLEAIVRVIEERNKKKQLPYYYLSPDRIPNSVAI
Procedure: 5-Lipoxygenase inhibition is determined e.g. by measuring the percent inhibition of the synthesis of 5-HETE [(5S)-5-hydroxy-6,8,11,14-eicosa-tetraenoic acid] and leukotriene B4 (LTB4, 5,12-dihydroxy-6,8,10,14-eicosatetraenoic acid) in A-23187-stimulated guinea pig polymorphonuclear leukocytes, essentially according to radiometric thin-layer chromatographic assays described by Walker and Dawson (J. Pharm. Pharmacol. 31: 778, 1979) and Jakschik and Lee (Nature 287: 51, 1980) used to measure the formation of 5-HETE and LTB4 -like products from ^14 C-arachidonic acid. IC50 values are determined graphically as the concentration of test compound at which the synthesis of 5-HETE and LTB4 -like products is reduced to 50% of their respective control values.
(§1) Illustrative of the invention, the compound of example 1, (E)-3-[4-(2,5-dimethyl-1H-pyrrol-1-yl)-phenyl]-N-hydroxy-N-methyl-2-propenamide, inhibits the formation of 5-HETE [(5S)-5-hydroxy-6,8,11,14-eicosa-tetraenoic acid] and leukotriene B4 (LTB4, 5,12-dihydroxy-6,8,10,14-eicosatetraenoic acid) in A-23187-stimulated guinea pig polymorphonuclear leukocytes, e.g. at an IC50 of about 0.7 micromolar (7×10^-7 M).

[2] = test system: rat pleurisy model of inflammation; assay: Carrageenin-induced pleurisy model of inflammation; assay type: in vivo; settings: 10 mg/kg p.o. at -1, 6, 24 and 45 hours relative to carrageenin injection, 48 hours after injection
5-lipoxygenase [3] = assay: Ex vivo inhibition of A-23187-stimulated LTB4 formation in whole blood after oral administration; settings: dose of about 1 mg/kg p.o. to the dog
Procedure: Furthermore, the inhibition of 5-lipoxygenase is determined after oral or i.v. administration to rats or dogs by measuring ex vivo in whole blood the decrease of A-23187-stimulated LTB4 formation as compared to non-treated control animals.
as §1

Cc1ccc(C)n1-c1ccc(/C=C/C(=O)N(C)O)cc1 [Example 1, (E)-3-[4-(2,5-dimethyl-1H-pyrrol-1-yl)-phenyl]-N-hydroxy-N-methyl-2-propenamide]
IC50 (5-lipoxygenase [1]): ~700 nM
cell count of leukocytes [2]: lowers the cell count of leukocytes
inhibition of exudate volume [2]: causes inhibition of exudate volume
inhibition of LTB4 formation as determined ex vivo (5-lipoxygenase [3]): 50%

Source: patent US5096919A, “Pyrrolylphenyl-substituted hydroxamic acid derivatives” (Ciba-Geigy Corporation, priority 1989, dated 1992)
